Laboratory results reported in patent US20230021483A1, “[…] […] METHOD AND CLASSIFICATION OF PHARMACEUTICAL COMPONENTS BY USING TRANSCRIPTOMES” (National Institutes of Biomedical Innovation, Health and …, priority 2016, published 2023).

How the values were obtained:
[1] = tested on: adjuvant-associated biological themes in LV, SP, LN; conditions: LV, ID
Summary of the method: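 Enrichment score S sums −log(p) over consensus themes whose names contain a pre-selected adjuvant-associated term such as "stress" or "cytokine". Consensus requires a theme in all three mice of a group, p<0.05. Themes come from TargetMine analysis of genes with eij/ei(c)>2.0, Fisher's exact test, Holm-Bonferroni-corrected.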

[2] = literature reports; cited from earlier work

With `Nc1nc2c(ncn2[C@@H]2O[C@@H]3COP(=O)(O)O[C@H]4[C@@H](O)[C@H](n5cnc6c(=O)[nH]c(N)nc65)O[C@@H]4COP(=O)(O)O[C@H]3[C@H]2O)c(=O)[nH]1` [cdiGMP, Cyclic diguanylate monophosphate] the “GO annotation: Cytokine-cytokine receptor interaction (Term: cytokine)” value [1] was 13.8, the “GO annotation: Cytokine-cytokine receptor interaction|Endocytosis (Term: cytokine)” value [1] was 33.9 and the “GO annotation: I-kappaB kinase/NF-kappaB signaling (Term: NF-kappa B signaling pathway)” value [1] was 13.8. For the same molecule, the “GO annotation: NF-kappa B signaling pathway (Term: NF-kappa B signaling pathway)” value [1] was 15.7, the “GO annotation: TNF signaling pathway (Term: TNF signaling pathway)” value [1] was 31.3 and the “GO annotation: activation of immune response (Term: immune response)” value [1] was 17.9. The “GO annotation: activation of innate immune response (Term: innate immune response)” value [1] was 21.2, the “GO annotation: acute inflammatory response (Term: inflammatory response)” value [1] was 0 and the “GO annotation: adaptive immune response (Term: adaptive immune response)” value [1] was 10. The “GO annotation: adaptive immune response based on somatic recombination of immune receptors built from immunoglobulin superfamily domains (Term: adaptive immune response)” value [1] was 10.6, the “GO annotation: apoptotic process (Term: apoptosis)” value [1] was 12.1 and the “GO annotation: apoptotic signaling pathway (Term: apoptosis)” value [1] was 0. For the same molecule, the “GO annotation: cell chemotaxis (Term: chemotaxis)” value [1] was 0, the “GO annotation: cell death (Term: cell death)” value [1] was 17.7 and the “GO annotation: cell migration (Term: migration)” value [1] was 0. For the same molecule, the “GO annotation: cellular response to cytokine stimulus (Term: cytokine)” value [1] was 38.8, the “GO annotation: cellular response to interferon-alpha (Term: IFN alpha)” value [1] was 7.42 and the “GO annotation: cellular response to stress (Term: stress)” value [1] was 0. For the same molecule, the “GO annotation: chemokine production (Term: chemokine)” value [1] was 8.52, the “GO annotation: chemokine-mediated signaling pathway (Term: chemokine)” value [1] was 5.9 and the “GO annotation: chemotaxis (Term: chemotaxis)” value [1] was 0. The “GO annotation: cytokine biosynthetic process (Term: cytokine)” value [1] was 7.93, the “GO annotation: cytokine metabolic process (Term: cytokine)” value [1] was 7.39 and the “GO annotation: cytokine production (Term: cytokine)” value [1] was 31.3. The “GO annotation: cytokine secretion (Term: cytokine)” value [1] was 0, the “GO annotation: cytokine-mediated signaling pathway (Term: cytokine)” value [1] was 20 and the “GO annotation: death (Term: cell death)” value [1] was 12.1. The “GO annotation: defense response (Term: defense response)” value [1] was 80.9, the “GO annotation: defense response to Gram-positive bacterium (Term: defense response)” value [1] was 7.18 and the “GO annotation: defense response to bacterium (Term: defense response)” value [1] was 10.5. For the same molecule, the “GO annotation: defense response to other organism (Term: defense response)” value [1] was 44.1, the “GO annotation: defense response to protozoan (Term: defense response)” value [1] was 5.31 and the “GO annotation: defense response to virus (Term: defense response)” value [1] was 24.6. The “GO annotation: granulocyte chemotaxis (Term: chemotaxis)” value [1] was 0, the “GO annotation: granulocyte migration (Term: migration)” value [1] was 0 and the “GO annotation: immune response (Term: immune response)” value [1] was 52.3. The “GO annotation: immune response-activating signal transduction (Term: immune response)” value [1] was 19.3, the “GO annotation: immune response-regulating signaling pathway (Term: immune response)” value [1] was 23.5 and the “GO annotation: inflammatory response (Term: inflammatory response)” value [1] was 26.1. For the same molecule, the “GO annotation: innate immune response (Term: innate immune response)” value [1] was 40.7, the “GO annotation: innate immune response-activating signal transduction (Term: innate immune response)” value [1] was 20.3 and the “GO annotation: interferon-alpha production (Term: IFN alpha)” value [1] was 7.69. The “GO annotation: intrinsic apoptotic signaling pathway (Term: apoptosis)” value [1] was 0, the “GO annotation: leukocyte chemotaxis (Term: chemotaxis)” value [1] was 0 and the “GO annotation: leukocyte migration (Term: migration)” value [1] was 0. The “GO annotation: leukocyte migration involved in inflammatory response (Term: inflammatory response)” value [1] was 0, the “GO annotation: lymphocyte chemotaxis (Term: chemotaxis)” value [1] was 0 and the “GO annotation: lymphocyte migration (Term: migration)” value [1] was 0. The “GO annotation: myeloid leukocyte migration (Term: migration)” value [1] was 0, the “GO annotation: negative regulation of apoptotic process (Term: apoptosis)” value [1] was 0 and the “GO annotation: negative regulation of cell death (Term: cell death)” value [1] was 0. For the same molecule, the “GO annotation: negative regulation of cytokine production (Term: cytokine)” value [1] was 6.2, the “GO annotation: negative regulation of defense response (Term: defense response)” value [1] was 8.05 and the “GO annotation: negative regulation of immune response (Term: immune response)” value [1] was 6.54. For the same molecule, the “GO annotation: negative regulation of innate immune response (Term: innate immune response)” value [1] was 10.4, the “GO annotation: negative regulation of programmed cell death (Term: cell death)” value [1] was 0 and the “GO annotation: neutrophil chemotaxis (Term: chemotaxis)” value [1] was 0. For the same molecule, the “GO annotation: neutrophil migration (Term: migration)” value [1] was 0, the “GO annotation: positive regulation of I-kappaB kinase/NF-kappaB signaling (Term: NF-kappa B signaling pathway)” value [1] was 7.15 and the “GO annotation: positive regulation of adaptive immune response (Term: adaptive immune response)” value [1] was 0. For the same molecule, the “GO annotation: positive regulation of apoptotic process (Term: apoptosis)” value [1] was 0, the “GO annotation: positive regulation of cell death (Term: cell death)” value [1] was 0 and the “GO annotation: positive regulation of cell migration (Term: migration)” value [1] was 0. For the same molecule, the “GO annotation: positive regulation of chemokine production (Term: chemokine)” value [1] was 8.31, the “GO annotation: positive regulation of chemotaxis (Term: chemotaxis)” value [1] was 0 and the “GO annotation: positive regulation of cytokine biosynthetic process (Term: cytokine)” value [1] was 3.62. The “GO annotation: positive regulation of cytokine production (Term: cytokine)” value [1] was 23.6, the “GO annotation: positive regulation of defense response (Term: defense response)” value [1] was 35.8 and the “GO annotation: positive regulation of immune response (Term: immune response)” value [1] was 24.4. The “GO annotation: positive regulation of inflammatory response (Term: inflammatory response)” value [1] was 0, the “GO annotation: positive regulation of innate immune response (Term: innate immune response)” value [1] was 22.3 and the “GO annotation: positive regulation of interferon-alpha production (Term: IFN alpha)” value [1] was 8.97. For the same molecule, the “GO annotation: positive regulation of leukocyte chemotaxis (Term: chemotaxis)” value [1] was 0, the “GO annotation: positive regulation of leukocyte migration (Term: migration)” value [1] was 3.33 and the “GO annotation: positive regulation of programmed cell death (Term: cell death)” value [1] was 0. For the same molecule, the “GO annotation: positive regulation of response to wounding (Term: wounding)” value [1] was 0, the “GO annotation: positive regulation of tumor necrosis factor superfamily cytokine (Term: cytokine)” value [1] was 0 and the “GO annotation: production of molecular mediator of immune response (Term: immune response)” value [1] was 0. For the same molecule, the “GO annotation: programmed cell death (Term: cell death)” value [1] was 14, the “GO annotation: regulation of I-kappaB kinase/NF-kappaB signaling (Term: NF-kappa B signaling pathway)” value [1] was 8.16 and the “GO annotation: regulation of adaptive immune response (Term: adaptive immune response)” value [1] was 8.01. The “GO annotation: regulation of adaptive immune response based on somatic recombination of immune receptors built from immunoglobulin superfamily domains (Term: adaptive immune response)” value [1] was 3.64, the “GO annotation: regulation of apoptotic process (Term: apoptosis)” value [1] was 4.93 and the “GO annotation: regulation of apoptotic signaling pathway (Term: apoptosis)” value [1] was 0. For the same molecule, the “GO annotation: regulation of cell death (Term: cell death)” value [1] was 4.48, the “GO annotation: regulation of cell migration (Term: migration)” value [1] was 0 and the “GO annotation: regulation of chemokine production (Term: chemokine)” value [1] was 9.64. The “GO annotation: regulation of chemotaxis (Term: chemotaxis)” value [1] was 0, the “GO annotation: regulation of cytokine biosynthetic process (Term: cytokine)” value [1] was 3.81 and the “GO annotation: regulation of cytokine production (Term: cytokine)” value [1] was 31.6. For the same molecule, the “GO annotation: regulation of defense response (Term: defense response)” value [1] was 56.5, the “GO annotation: regulation of defense response to virus (Term: defense response)” value [1] was 0 and the “GO annotation: regulation of defense response to virus by host (Term: defense response)” value [1] was 0. For the same molecule, the “GO annotation: regulation of immune response (Term: immune response)” value [1] was 29.4, the “GO annotation: regulation of inflammatory response (Term: inflammatory response)” value [1] was 12.3 and the “GO annotation: regulation of innate immune response (Term: innate immune response)” value [1] was 33.4. The “GO annotation: regulation of interferon-alpha production (Term: IFN alpha)” value [1] was 8.3, the “GO annotation: regulation of intrinsic apoptotic signaling pathway (Term: apoptosis)” value [1] was 0 and the “GO annotation: regulation of leukocyte chemotaxis (Term: chemotaxis)” value [1] was 0. For the same molecule, the “GO annotation: regulation of leukocyte migration (Term: migration)” value [1] was 0, the “GO annotation: regulation of programmed cell death (Term: cell death)” value [1] was 5.36 and the “GO annotation: regulation of response to stress (Term: stress)” value [1] was 42.9. For the same molecule, the “GO annotation: regulation of response to wounding (Term: wounding)” value [1] was 10.7, the “GO annotation: regulation of tumor necrosis factor superfamily cytokine production (Term: cytokine)” value [1] was 4.03 and the “GO annotation: response to cytokine (Term: cytokine)” value [1] was 56.3. The “GO annotation: response to interferon-alpha (Term: IFN alpha)” value [1] was 12.6, the “GO annotation: response to stress (Term: stress)” value [1] was 56.2 and the “GO annotation: response to wounding (Term: wounding)” value [1] was 11.4. The “GO annotation: taxis (Term: chemotaxis)” value [1] was 0, the “GO annotation: tumor necrosis factor superfamily cytokine production (Term: cytokine)” value [1] was 3.79 and the “IFN beta: cellular response to interferon-beta” value [1] was 23.1. The “IFN beta: interferon-beta production” value [1] was 8.61, the “IFN beta: positive regulation of interferon-beta production” value [1] was 13.2 and the “IFN beta: regulation of interferon-beta production” value [1] was 9.22. For the same molecule, the “IFN beta: response to interferon-beta” value [1] was 26.5, the “IFN gamma: cellular response to interferon-gamma” value [1] was 10.1 and the “IFN gamma: interferon-gamma production” value [1] was 5.35. For the same molecule, the “IFN gamma: regulation of interferon-gamma production” value [1] was 0, the “IFN gamma: response to interferon-gamma” value [1] was 10.8 and the “interleukin-6: interleukin-6 production” value [1] was 7.8. For the same molecule, the “interleukin-6: positive regulation of interleukin-6 production” value [1] was 0, the “interleukin-6: regulation of interleukin-6 production” value [1] was 8.27 and the “interleukin-12: interleukin-12 production” value [1] was 6.51. For the same molecule, the “interleukin-12: positive regulation of interleukin-12 production” value [1] was 0, the “interleukin-12: regulation of interleukin-12 production” value [1] was 6.99 and the Th response induced [2] was “appears to induce Th1 responses”.
